As usually defined, the IC50 is the concentration at which inhibition is half-maximal.

Drawing on patent publication US20230219913A1, “Sulfamoylamide Derivatives” (Hoffmann-La Roche Inc., priority 2020, published 2023), this text covers IC50 for 6 compounds.

T1 sequence (Q8N884 161-522): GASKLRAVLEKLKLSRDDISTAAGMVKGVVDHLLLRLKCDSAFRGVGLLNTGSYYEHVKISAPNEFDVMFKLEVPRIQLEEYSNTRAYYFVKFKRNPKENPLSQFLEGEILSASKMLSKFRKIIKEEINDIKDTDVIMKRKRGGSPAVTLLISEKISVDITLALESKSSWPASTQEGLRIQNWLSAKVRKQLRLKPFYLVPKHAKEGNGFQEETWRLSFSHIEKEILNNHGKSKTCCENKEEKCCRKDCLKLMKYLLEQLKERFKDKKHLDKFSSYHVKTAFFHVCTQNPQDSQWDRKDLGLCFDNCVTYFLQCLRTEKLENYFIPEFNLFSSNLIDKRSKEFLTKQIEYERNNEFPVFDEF

The assay has as its target T1, human cGAS (residues 161-522) (Homo sapiens, UniProt Q8N884).
T1 construct: Recombinantly expressed purified human cGAS (residues 161-522) was used at 25 nM; made in house
Kind of assay: Malachite Green assay to measure cGAS activity (coupled enzymatic assay, phosphate detection). It counts as biochemical. As to conditions: recombinant human cGAS 25 nM; 80 μM ATP, 80 μM GTP, 100 nM ISD; 4 hour at RT. As for the experimental part:
Malachite Green Assay to Measure cGAS Activity
Compounds were tested for cGAS inhibition in a coupled enzymatic assay based on Phosphate detection by Malachite Green. Final assay conditions were 20 mM TRIS pH 7.5 (Applichem), 5 mM MgCl2 (Sigma) and 0.01% BSA (Sigma) supplemented with 80 μM ATP (Sigma), 80 μM GTP (Sigma) and 100 nM Interferon Stimulating DNA (ISD) (Microsynth). Recombinantly expressed purified human cGAS (residues 161-522) was used at 25 nM.
All compounds were prepared as 10 mM stock solutions in DMSO and a 16 pt dilution series in DMSO with a dilution factor of 2.5 was prepared. 1 μL of DMSO dilution series was transferred to 32.3 μL reaction buffer, mixed by pipetting up/down, spun for 1 minute at 3000 rpm and was visually inspected for precipitation. 5 μL of 3-fold enzyme stock solution were transferred to an empty 384-well Black/Clear Flat Bottom Polystyrene NBS (Corning) rows 3-24. Rows 1-2 were filled with assay buffer. Plates were spun 10 seconds at 1000 rpm (164×g). 5 μL of compound intermediate dilution was added and mixed by pipetting up/down to rows 3-24. Rows 1-2 were filled with 3.1% DMSO assay buffer. Plates were spun 10 seconds at 1000 rpm (164×g). 5 μL 3-fold Nucleotide/DNA mix was added to all wells to start the reaction. Plates were spun 10 seconds at 1000 rpm (164×g) and incubated for 4 hour at room temperature (RT) in the dark. 5 μL 4 U/mL PPase (Sigma) were added to all wells. Plates spun 10 seconds at 1000 rpm (164×g). 10 μL BioMol green Solution (Enzo Life Sciences) was added to all wells. Plates spun 10 seconds at 1000 rpm (164×g) and incubated 30 minutes at RT in the dark. Absorbance data was collected 620 nm on an EnVision Multilable Reader (Perkin Elmer) and the following measurement settings were used: excitation filter photometric was 620 nm; excitation from the top; measurement height was 1 mm; number of flashes was 30; number of flashes integrated was 1.
All plates are checked for abnormalities and outliers in the Blank Control (no protein, row 1) and the Neutral Control (no compound, row 2) are excluded using the 3*SD rule. Data was normalized to 0 and 100% by Blank and Neutral Control and each curve was fitted and judged using the 4 parameter logistic equation to determine the IC50 for cGAS inhibition.
Table 1 provides IC50 values (04) for cGAS inhibition obtained for particular examples of the present invention as measured by the above-described assay.
As to `Cc1ccc(-c2ccc3c(c2)C(=O)NS(=O)(=O)N3CCN2CCOCC2)c(Cl)c1` [Example 2, 6-(2-Chloro-4-methylphenyl)-1-(2-morpholinoethyl)-1H-benzo[c][1,2,6]thiadiazin-4(3H)-one 2,2-dioxide], the IC50 stood at 9.6 µM.

Consider `Cc1ccc(-c2ccc3c(c2)C(=O)N(CCN2CCOCC2)S(=O)(=O)N3)c(Cl)c1` [Example 5, 6-(2-Chloro-4-methylphenyl)-3-(2-morpholinoethyl)-1H-benzo[c][1,2,6]thiadiazin-4(3H)-one 2,2-dioxide], for which the IC50 amounted to 17.6 µM.

In the case of `Cc1ccc(-c2ccc3c(c2)C(=O)NS(=O)(=O)N3Cc2ccncc2)c(Cl)c1` [Example 3, 6-(2-Chloro-4-methylphenyl)-1-(pyridin-4-ylmethyl)-1H-benzo[c][1,2,6]thiadiazin-4(3H)-one 2,2-dioxide], the half-inhibitory concentration (IC50) stood at 14.2 µM.

`Cc1ccc(-c2ccc3c(c2)C(=O)NS(=O)(=O)N3Cc2ccccc2)c(Cl)c1` [Example 6, 1-Benzyl-6-(2-chloro-4-methylphenyl)-1H-benzo[c][1,2,6]thiadiazin-4(3H)-one 2,2-dioxide]: the IC50 turned out to be 20.1 µM.

Turning to `Cc1ccc(-c2ccc3c(c2)C(=O)NS(=O)(=O)N3CCc2ccccc2)c(Cl)c1` [Example 4, 6-(2-Chloro-4-methylphenyl)-1-phenethyl-1H-benzo[c][1,2,6]thiadiazin-4(3H)-one 2,2-dioxide], the half-maximal inhibitory concentration (IC50) amounted to 17.2 µM.

`Cc1ccc(-c2ccc3c(c2)C(=O)NS(=O)(=O)N3)c(Cl)c1` [Example 1, 6-(2-Chloro-4-methylphenyl)-1H-benzo[c][1,2,6]thiadiazin-4(3H)-one 2,2-dioxide]: the IC50 was 2.94 µM.
